Read-outs that look alike come from different tables or passages of the source. No end group written: not given here.
Biological target: T1, GPR103 L14N-termA (Homo sapiens, UniProt Q96P65, L14A)
T1 construct: we used human full-length QRFPR-encoding plasmids; expressed in transfected cells; host or cells: HEK293 cells, pCAGGS vector
T1 sequence (Q96P65 1-431 L14A): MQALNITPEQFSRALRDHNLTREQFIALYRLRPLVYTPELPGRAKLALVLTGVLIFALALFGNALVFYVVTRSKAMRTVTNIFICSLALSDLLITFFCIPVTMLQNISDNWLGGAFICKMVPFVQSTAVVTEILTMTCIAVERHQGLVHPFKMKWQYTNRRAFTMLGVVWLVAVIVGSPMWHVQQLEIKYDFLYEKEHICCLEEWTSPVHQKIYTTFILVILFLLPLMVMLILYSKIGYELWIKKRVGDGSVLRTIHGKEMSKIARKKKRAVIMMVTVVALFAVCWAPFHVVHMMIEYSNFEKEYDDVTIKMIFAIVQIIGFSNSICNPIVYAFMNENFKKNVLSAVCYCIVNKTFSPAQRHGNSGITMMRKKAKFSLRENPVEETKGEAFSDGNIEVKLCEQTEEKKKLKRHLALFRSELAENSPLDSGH
Experiment: TGFα shedding assay; Exp. level WT (1:5)
Format: cell-based
Procedure: For the TGFα shedding assay and the flow cytometry analysis, we used human full-length QRFPR-encoding plasmids. Specifically, GPR103 was N-terminally modified with an HA signal sequence followed by a FLAG epitope and then a flexible linker ([…]; the FLAG epitope is underlined) and inserted into the pCAGGS vector. Plasmid encoding GPR103 mutants were generated using Quickchange Site-Directed Mutagensis kit (Agilent).
The TGFα shedding assay was performed as described previously with minor modifications. Plasmid transfection was performed in a 6-well plate with a mixture of 500 ng (per well in a 6-well plate) AP-TGFα-encoding plasmid and 200 ng GPR103-encoding plasmid. After 1-day culture, the transfected cells were harvested by trypsinization, pelleted by centrifugation at 190 × g for 5 min, and washed once with 5 mM HEPES (pH 7.4)-containing Hank’s Balanced Salt Solution (HBSS). After centrifugation, the cells were resuspended in 8 mL of the HEPES-containing HBSS. The cell suspension was seeded in a 96-well culture plate (cell plate) at a volume of 90 μL (per well hereafter) and incubated in a 37 °C incubator with 5% CO2 for 30 min. […] After spinning the cell plates at 190 × g for 2 min, 80 μL of conditioned media was transferred to an empty 96-well plate (conditioned media (CM) plate). Then, 80 μL of AP reaction solution (10 mM p-nitrophenylphosphate (p-NPP), 120 mM Tris-HCl (pH 9.5), 40 mM NaCl, and 10 mM MgCl2) was dispensed into the cell plates and the CM plates. Absorbance at 405 nm of the plates was measured using a microplate reader (SpectraMax 340 PC384, Molecular Devices) before and after 1-h incubation at room temperature. Ligand-induced AP-TGFα release was calculated by subtracting spontaneous AP-TGFα release signal from ligand-induced AP-TGFα release signal. The AP-TGFα release signals were fitted to a four-parameter sigmoidal concentration–response curve, using the Prism 10 software (GraphPad Prism). For each replicate experiment, the pEC50 parameter (negative logarithmic values of EC50 values) of the individual GPR103 mutants were normalized to that of the wild-type GPR103 performed in parallel, and resulting ∆pEC50 values were used to denote ligand response activity of the mutants. […]
Exp. le vel: WT (1:5 0)Exp. le vel: WT (1:5 0)Exp. le vel: WT (1:5 0)Exp. le vel: WT (1:2 0)Exp. le vel: WT (1:2 0)Exp. le vel: WT (1:1 0) […]
L1 4N - t e r mA F2 5N - t e r mA I 2 6N - t e r mA Y 2 9N - t e r mA C 9 82 .5 7A T10 22 .6 1A Exp . l eve l: WT (1 :5)Exp . l evel : >WT (1 :1)Exp. le vel: WT (1:2 0)Exp. le vel: WT (1:2 0)Exp. le vel: WT (1:5 0)Exp . l eve l: WT (1 :1) […]
Exp. le vel: WT (1:1 0)Exp. le vel: WT (1:2 0) C 1 1 83 .2 5AExp. le vel: WT (1:5 0)Exp. le vel: WT (1:5 0)Exp. le vel: WT (1:2 0)Exp . l eve l: WT (1 :5) […]
Exp. le vel: WT (1:5 0)Exp. le vel: WT (1:1 0)Exp. le vel: WT (1:5 0) E203ECL2AExp . l evel : >WT (1 :1)Exp. le vel: WT (1:5 0)Exp. le vel: WT (1:5 0) […]
Exp . l eve l: WT (1 :1) F28Exp. le vel: WT (1:5 0) C 2 8 56 .4 7AExp. le vel: WT (1:2 0) WExp. le vel: WT (1:2 0) F28Exp. le vel: WT (1:5 0)Exp . l evel : >WT (1 :1) […]
Exp. le vel: WT (1:5 0)Exp. le vel: WT (1:5 0) C 3 2 77 .4 8AExp . l eve l: WT (1 :5)Exp . l evel : >WT (1 :1)Exp . l evel : >WT (1 :1) […]
Suppl eme nt ary Figure 1 | Mutational analysis of GPR103. […]
mutants. Data are presented as mean values ± SEM, normally n=3-5; dots), each performed in triplicate. b-d Cell-surface expression (b) and QRFP26-in-duced activation of GPR103 (c, d) were analyzed by the flow cytometry and the TGFα shedding assay, respectively. From the concentration–response curves (a), Emax (c) and ΔpEC50 (d) values relative to the wild type were calculated. Colors in the mutant bars indicate an expression level matching to that of titrated wild type. Statistical analyses were performed using the ordinary one-way ANOVA followed by Dunnett tests with the expression-matched […]

- Emax (Exp. #1): 105.09 % WT
- Emax (Exp. #2): 97.15 % WT
- Emax (Exp. #3): 104.38 % WT
- Emax (mean, read-out: Emax): 102%
- EC50 (n = 3): 7.59 nM
- Emax (n = 3, read-out: Emax): 106 ± 2.1%
Substance: TSGPLGNLAEELNGYSRKKGGFSFRF-NH2 [QRFP26]

From PMC11187126, “Structure and dynamics of the pyroglutamylated RF-amide peptide QRFP receptor GPR103” (Nature Communications, 2024)
